Molecules are shown by their SMILES.

Sequence of human PDE10A2 (Q9Y233 267-1055): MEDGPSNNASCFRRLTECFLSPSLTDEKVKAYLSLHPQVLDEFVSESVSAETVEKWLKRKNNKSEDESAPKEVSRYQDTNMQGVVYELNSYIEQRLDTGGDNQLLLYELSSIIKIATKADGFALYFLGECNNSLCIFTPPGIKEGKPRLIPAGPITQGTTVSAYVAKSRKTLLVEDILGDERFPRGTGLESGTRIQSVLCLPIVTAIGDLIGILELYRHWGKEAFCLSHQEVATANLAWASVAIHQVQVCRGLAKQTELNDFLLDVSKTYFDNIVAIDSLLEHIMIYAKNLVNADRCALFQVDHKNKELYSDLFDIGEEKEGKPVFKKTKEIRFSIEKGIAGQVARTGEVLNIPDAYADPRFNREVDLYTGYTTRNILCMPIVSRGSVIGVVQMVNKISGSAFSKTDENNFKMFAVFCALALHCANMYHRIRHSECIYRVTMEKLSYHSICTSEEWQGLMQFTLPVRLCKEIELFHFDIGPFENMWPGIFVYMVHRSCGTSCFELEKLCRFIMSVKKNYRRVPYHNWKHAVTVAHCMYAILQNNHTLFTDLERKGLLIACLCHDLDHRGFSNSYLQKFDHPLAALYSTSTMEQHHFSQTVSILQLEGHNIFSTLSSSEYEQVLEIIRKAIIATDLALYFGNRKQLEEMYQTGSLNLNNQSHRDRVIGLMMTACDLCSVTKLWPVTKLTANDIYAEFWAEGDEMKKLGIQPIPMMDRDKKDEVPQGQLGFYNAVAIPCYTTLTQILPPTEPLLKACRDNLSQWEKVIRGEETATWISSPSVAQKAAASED

In the assay the target is human PDE10A2 (Homo sapiens (Human), UniProt Q9Y233). Description: PDE10 fluorescence polarization (IMAP FP) inhibition assay. It is filed as biochemical. As to conditions: FAM-labeled cAMP substrate 50 nM, room temperature, apparent inhibition constant; read-out: PDE10A Ki. As to the method:
The activity of the compounds in accordance with the present invention as PDE10 inhibitors may be readily determined without undue experimentation using a fluorescence polarization (FP) methodology that is well known in the art (Huang, W., et al., J. Biomol Screen, 2002, 7: 215).
In a typical experiment the PDE10 inhibitory activity of the compounds of the present invention was determined in accordance with the following experimental method. PDE10A2 was amplified from human fetal brain cDNA (Clontech, Mountain View, Calif.) using a forward primer corresponding to nucleotides 56-77 of human PDE10A2 (Accession No. AF127480, Genbank Identifier 4894716), containing a Kozak consensus sequence, and a reverse primer corresponding to nucleotides 2406-2413 of human PDE10A2 (Accession No. AF127480, Genbank Identifier 4894716). Amplification with Easy-A polymerase (Stratagene, La Jolla, Calif.) was 95° C. for 2 minutes followed by thirty three cycles of 95° C. for 40 seconds, 55° C. for 30 seconds, and 72° C. for 2 minutes 48 seconds. Final extension was 72° C. for 7 minutes. The PCR product was TA cloned into pcDNA3.2-TOPO (Invitrogen, Carlsbad, Calif.) according to standard protocol. AD293 cells with 70-80% confluency were transiently transfected with human PDE10A2/pcDNA3.2-TOPO using Lipofectamine 2000 according to manufacturer specifications (Invitrogen, Carlsbad, Calif.). Cells were harvested 48 hours post-transfection and lysed by sonication (setting 3, 10×5 sec pulses) in a buffer containing 20 mM HEPES, 1 mM EDTA and protease inhibitor cocktail (Roche). Lysate was collected by centrifugation at 75,000×g for 20 minutes. Supernatant containing the cytoplasmic fraction was used for evaluation of PDE10A2 activity. The fluorescence polarization assay for cyclic nucleotide phosphodiesterases was performed using an IMAP® FP kit supplied by Molecular Devices, Sunnyvale, Calif. (product #R8139). IMAP® technology has been applied previously to phosphodiesterase assays (Huang, W., et al., J. Biomol Screen, 2002, 7: 215). Assays were performed at room temperature in 384-well microtiter plates with an incubation volume of 20.2 μL. Solutions of test compounds were prepared in DMSO and serially diluted with DMSO to yield 8 μL of each of 10 solutions differing by 3-fold in concentration, at 32 serial dilutions per plate. 100% inhibition is determined using a known PDE10 inhibitor, which can be any compound that is present at 5,000 times its Ki value in the assay described as follows, such as papaverine (see Siuciak, et al. Neuropharmacology (2006) 51:386-396; Becker, et al. Behav Brain Res (2008) 186(2):155-60; Threlfell, et al., J Pharmacol Exp Ther (2009) 328(3):785-795), 2-{4-[pyridin-4-yl-1-(2,2,2-trifluoroethyl)-1H-pyrazol-3-yl]phenoxymethyl}quinoline succinic acid or 2-[4-(1-methyl-4-pyridin-4-yl-1H-pyrazol-3-yl)-phenoxymethyl]quinoline succinic acid (see Schmidt, et al. J Pharmacol Exp Ther (2008) 325:681-690; Threlfell, et al., J Pharmacol Exp Ther (2009) 328(3): 785-795). 0% of inhibition is determined by using DMSO (1% final concentrations).
A Labcyte Echo 555 (Labcyte, Sunnyvale, Calif.) is used to dispense 200 nL from each well of the titration plate to the 384 well assay plate. A solution of enzyme (1/1600 dilution from aliquots; sufficient to produce 20% substrate conversion) and a separate solution of FAM-labeled cAMP PDE from Molecular Devices (product #R7506), at a final concentration of 50 nM are made in the assay buffer (10 mM Tris HCl, pH 7.2, 10 mM MgCl2, 0.05% NaN3 0.01% Tween-20, and 1 mM DTT). The enzyme and the substrate are then added to the assay plates in two consecutive additions of 10 μL, and then shaken to mix. The reaction is allowed to proceed at room temperature for 30 minutes. A binding solution is then made from the kit components, comprised of 80% Solution A, 20% Solution B and binding reagent at a volume of 1/600 the total binding solution. […]
On the technique in general: In fluorescence polarisation assays a small probe gives low polarisation when free and higher when bound to something large.
As to `COCCOc1nc(-c2ccc(Cl)nc2)nc2c1CN(C(=O)Oc1ccccc1)CC2` [Compound S-1, phenyl 2-(6-chloropyridin-3-yl)-4-(2-methoxyethoxy)-7,8-dihydropyrido[4,3-d]pyrimidine-6(5H)-carboxylate], the Ki is 16.8 nM. For `COCCOc1nc(-c2ccc(C)nc2)nc2c1CN(C(=O)c1cnn3ccccc13)CC2` [Compound R-1, 4-(2-methoxyethoxy)-2-(6-methylpyridin-3-yl)-6-(pyrazolo[1,5-a]pyridin-3-ylcarbonyl)-5,6,7,8-tetrahydropyrido[4,3-d]pyrimidine] the value was 12.5 nM.

Turning to `CC(C)Oc1nc(-c2cccnc2)nc2c1CN(C(=O)Nc1ccc3ccn(C)c3c1)CC2` [Compound 1-8, 4-isopropoxy-N-(1-methyl-1H-indol-6-yl)-2-pyridin-3-yl-7,8-dihydropyrido[4,3-d]pyrimidine-6(5H)-carboxamide], the Ki is 9.2 nM.

For the compound `Cc1ccc(NC(=O)N2CCc3nc(-c4ccc(Cl)nc4)nc(OC(C)C)c3C2)cn1` [Compound 1-11, 2-(6-chloropyridin-3-yl)-N-(6-methylpyridin-3-yl)-4-(propan-2-yloxy)-7,8-dihydropyrido[4,3-d]pyrimidine-6(5H)-carboxamide], the Ki was determined as 0.6 nM.

Take `COCCOc1nc(-c2ccc(Cl)nc2)nc2c1CN(C(=O)c1ncn3ccccc13)CC2` [Compound Q-2, [2-(6-chloropyridin-3-yl)-4-(2-methoxyethoxy)-7,8-dihydropyrido[4,3-d]pyrimidin-6(5H)-yl](imidazo[1,5-a]pyridin-1-yl)methanone]: the Ki turned out to be 0.99 nM.

`COc1ccc2[nH]c(C(=O)N3CCc4nc(-c5cccnc5)nc(OC(C)C)c4C3)cc2n1` [Compound 1-20, (5-methoxy-1H-pyrrolo[3,2-b]pyridin-2-yl)[4-(propan-2-yloxy)-2-(pyridin-3-yl)-7,8-dihydropyrido[4,3-d]pyrimidin-6(5H)-yl]methanone]: the Ki came to 0.8 nM. As for `CC(C)Oc1nc(-c2ccc(Cl)nc2)nc2c1CN(S(=O)(=O)c1cccnc1)CC2` [Compound 1-17, 2-(6-chloropyridin-3-yl)-4-(propan-2-yloxy)-6-(pyridin-3-ylsulfonyl)-5,6,7,8-tetrahydropyrido[4,3-d]pyrimidine], the figure is 0.63 nM. For `CC(C)Oc1nc(-c2cccnc2)nc2c1CN(c1nc3ccccc3o1)CC2` [Compound 1-18, 6-(1,3-benzoxazol-2-yl)-4-(propan-2-yloxy)-2-(pyridin-3-yl)-5,6,7,8-tetrahydropyrido[4,3-d]pyrimidine] the value was 15.9 nM; for `Cc1ccc(NC(=O)N2CCc3nc(N4CCCC4)nc(OC(C)C)c3C2)cn1` [Compound N-5, 4-isopropoxy-N-(6-methylpyridin-3-yl)-2-pyrrolidin-1-yl-7,8-dihydropyrido[4,3-d]pyrimidine-6(5H)-carboxamide], 31.4 nM. For `CCc1cccc(NC(=O)N2CCc3nc(-c4cccnc4)nc(OC4CCN(C)CC4)c3C2)c1` [Compound 1-7, N-(3-ethylphenyl)-4-[(1-methylpiperidin-4-yl)oxy]-2-pyridin-3-yl-7,8-dihydropyrido[4,3-d]pyrimidine-6(5H)-carboxamide] the value was 14 nM; for `CC(C)Oc1nc(-c2ccc(Cl)nc2)nc2c1CN(C(=O)c1cn(C)cn1)CC2` [Compound 1-19, [2-(6-chloropyridin-3-yl)-4-(propan-2-yloxy)-7,8-dihydropyrido[4,3-]pyrimidin-6(5H)-yl](1-methyl-1H-imidazol-4-yl)methanone], 4.55 nM; for `COCCOc1nc(-c2ccc(Cl)nc2)nc2c1CN(C(=O)c1cnn3ccccc13)CC2` [Compound O-2, [2-(6-chloropyridin-3-yl)-4-(2-methoxyethoxy)-7,8-dihydropyrido[4,3-d]pyrimidin-6(5H)-yl](pyrazolo[1,5-a]pyridin-3-yl)methanone], 0.93 nM. For `COc1cc(NC(=O)N2CCc3nc(-c4ccc(Cl)nc4)nc(O[C@@H]4CCOC4)c3C2)ccn1` [Compound 1-13, 2-(6-chloropyridin-3-yl)-N-(2-methoxypyridin-4-yl)-4-[(3R)-tetrahydrofuran-3-yloxy]-7,8-dihydropyrido[4,3-d]pyrimidine-6(5H)-carboxamide], the Ki is 0.84 nM. For `CC(C)Oc1nc(-c2ccc(Cl)nc2)nc2c1CN(C(=O)Nc1cnn(C)c1)CC2` [Compound K-2, 2-(6-chloropyridin-3-yl)-N-(1-methyl-1H-pyrazol-4-yl)-4-(propan-2-yloxy)-7,8-dihydropyrido-[4,3-d]pyrimidine-6(5H)-carboxamide] the value was 0.9 nM; for `Cc1ccc(C(=O)N2CCc3nc(-c4ccc(Cl)nc4)nc(OC(C)C)c3C2)cn1` [Compound 1-14, [2-(6-chloropyridin-3-yl)-4-(propan-2-yloxy)-7,8-dihydropyrido[4,3-d]pyrimidin-6(5H)-yl](6-methylpyridin-3-yl)methanone], 9.9 nM; for `COC[C@H](C)Oc1nc(-c2ccc(Cl)nc2)nc2c1CN(C(=O)c1ncn3ccccc13)CC2` [Compound T-1, [2-(6-chloropyridin-3-yl)-4-{[(2S)-1-methoxypropan-2-yl]oxy}-7,8-dihydropyrido[4,3-d]pyrimidin-6(5H)-yl](imidazo[1,5-a]pyridin-1-yl)methanone], 0.43 nM. As for `COC[C@H](C)Oc1nc(-c2ccc(Cl)nc2)nc2c1CN(C(=O)Nc1ccc(C)nc1)CC2` [Compound P-5, 2-(6-chloropyridin-3-yl)-4-{[(2S)-1-methoxypropan-2-yl]oxy}-N-(6-methylpyridin-3-yl)-7,8-dihydropyrido[4,3-d]pyrimidine-6(5H)-carboxamide], the figure is 0.92 nM.

The values are drawn from patent US8492392B2, “Alkoxy tetrahydro-pyridopyrimidine PDE10 inhibitors” (Merck Sharp & Dohme Corp., priority 2009, dated 2013).
